{
  "source": "paper PMC5218480",
  "about": "(PLoS ONE, 2017)",
  "tested_on": "MV-4-11 cells",
  "assay": "Gene expression microarray analysis (Affymetrix PrimeView) and GSEA",
  "type": "cell-based, human",
  "set-up": "RFU PODN (11730768_x_at) / Fold change /veh PODN (11730768_x_at) / RFU LINC00158 (11744669_a_at) / Fold change /veh LINC00158 (11744669_a_at) / RFU DUSP10 (11751237_a_at) / Fold change /veh DUSP10 (11751237_a_at) / RFU ID3 (11757404_x_at) / Fold change /veh ID3 (11757404_x_at) / RFU PLEKHG5 (11737974_s_at) / Fold change /veh PLEKHG5 (11737974_s_at) / RFU LRRC4B (11730491_at) / Fold change /veh LRRC4B (11730491_at) / RFU GIMAP4 (11747438_a_at) / Fold change /veh GIMAP4 (11747438_a_at) / RFU KRT8 (11758183_x_at) / Fold change /veh KRT8 (11758183_x_at) / RFU CNN1 (11734310_a_at) / Fold change /veh CNN1 (11734310_a_at) / RFU VPS37D (11726825_at) / Fold change /veh VPS37D (11726825_at) / RFU C10orf10 (11716522_x_at) / Fold change /veh C10orf10 (11716522_x_at) / RFU KIR2DL2 /// KIR2DL4 /// KIR2DL5A /// KIR2DL5B /// KIR2DS1 /// KIR2DS2 /// KIR2DS3 /// KIR2DS4 /// KIR3DL3 /// KIR3DL3 /// KIR3DS1 (11738374_at) / Fold change /veh KIR2DL2 /// KIR2DL4 /// KIR2DL5A /// KIR2DL5B /// KIR2DS1 /// KIR2DS2 /// KIR2DS3 /// KIR2DS4 /// KIR3DL3 /// KIR3DL3 /// KIR3DS1 (11738374_at) / RFU C1QL1 (11718748_at) / Fold change /veh C1QL1 (11718748_at) / RFU TMPRSS4 (11747572_a_at) / Fold change /veh TMPRSS4 (11747572_a_at) / RFU HAMP (11756126_x_at) / Fold change /veh HAMP (11756126_x_at) / RFU RNFT2 (11725882_a_at) / Fold change /veh RNFT2 (11725882_a_at) / RFU NR4A2 (11747474_a_at) / Fold change /veh NR4A2 (11747474_a_at) / RFU ABCC12 (11746883_a_at) / Fold change /veh ABCC12 (11746883_a_at) / RFU TMEM136 (11760407_x_at) / Fold change /veh TMEM136 (11760407_x_at) / RFU CLDN22 /// WWC2 (11732394_at) / Fold change /veh CLDN22 /// WWC2 (11732394_at) / RFU HLA-DPB1 (11760878_x_at) / Fold change /veh HLA-DPB1 (11760878_x_at) / RFU SPINT1 (11716480_a_at) / Fold change /veh SPINT1 (11716480_a_at) / RFU GAP43 (11754022_s_at) / Fold change /veh GAP43 (11754022_s_at) / RFU A4GNT (11735810_at) / Fold change /veh A4GNT (11735810_at) / RFU PRB3 (11715151_x_at) / Fold change /veh PRB3 (11715151_x_at) / RFU TUBB4B (11761932_at) / Fold change /veh TUBB4B (11761932_at) / RFU CAPN14 (11732068_a_at) / Fold change /veh CAPN14 (11732068_a_at) / RFU TMCC2 (11721928_a_at) / Fold change /veh TMCC2 (11721928_a_at) / RFU IRGQ (11745062_a_at) / Fold change /veh IRGQ (11745062_a_at) / RFU FAM174B (11720279_a_at) / Fold change /veh FAM174B (11720279_a_at) / RFU TMPRSS4 (11748680_a_at) / Fold change /veh TMPRSS4 (11748680_a_at) / RFU FAM212B (11763350_a_at) / Fold change /veh FAM212B (11763350_a_at) / RFU PLEKHG5 (11743358_a_at) / Fold change /veh PLEKHG5 (11743358_a_at) / RFU ZSCAN30 (11745921_a_at) / Fold change /veh ZSCAN30 (11745921_a_at) / RFU CMKLR1 (11741424_a_at) / Fold change /veh CMKLR1 (11741424_a_at) / RFU LOC101060620 /// MAPK8IP1 (11723275_at) / Fold change /veh LOC101060620 /// MAPK8IP1 (11723275_at) / RFU SPTSSB (11747773_x_at) / Fold change /veh SPTSSB (11747773_x_at) / RFU PRSS12 (11739890_at) / Fold change /veh PRSS12 (11739890_at) / RFU BIN1 (11741810_x_at) / Fold change /veh BIN1 (11741810_x_at) / RFU WNT11 (11732464_a_at) / Fold change /veh WNT11 (11732464_a_at) / RFU C10orf10 (11716521_a_at) / Fold change /veh C10orf10 (11716521_a_at) / RFU C5orf56 (11738089_at) / Fold change /veh C5orf56 (11738089_at) / RFU CYB561 (11721691_x_at) / Fold change /veh CYB561 (11721691_x_at) / RFU ANKRD19P (11752326_a_at) / Fold change /veh ANKRD19P (11752326_a_at) / RFU OR2T12 /// OR2T33 /// OR2T8 (11738714_s_at) / Fold change /veh OR2T12 /// OR2T33 /// OR2T8 (11738714_s_at) / RFU VCAN (11748164_a_at) / Fold change /veh VCAN (11748164_a_at) / RFU JSRP1 (11732532_at) / Fold change /veh JSRP1 (11732532_at) / RFU KRTAP10-11 (11738290_x_at) / Fold change /veh KRTAP10-11 (11738290_x_at) / RFU MYO3A (11730013_a_at) / Fold change /veh MYO3A (11730013_a_at) / RFU EBF3 (11725865_a_at) / Fold change /veh EBF3 (11725865_a_at) / RFU CAMK2N1 (11719241_x_at) / Fold change /veh CAMK2N1 (11719241_x_at) / RFU C5orf56 (11738088_a_at) / Fold change /veh C5orf56 (11738088_a_at) / RFU OLFML3 (11715873_a_at) / Fold change /veh OLFML3 (11715873_a_at) / RFU LOC100653217 /// NTM (11731650_a_at) / Fold change /veh LOC100653217 /// NTM (11731650_a_at) / RFU MAPK11 (11762145_a_at) / Fold change /veh MAPK11 (11762145_a_at) / RFU FIZ1 (11724087_x_at) / Fold change /veh FIZ1 (11724087_x_at) / RFU OASL (11726364_x_at) / Fold change /veh OASL (11726364_x_at) / RFU SOX15 (11748057_x_at) / Fold change /veh SOX15 (11748057_x_at) / RFU CD79A (11719716_a_at) / Fold change /veh CD79A (11719716_a_at) / RFU HIST1H1D (11736915_at) / Fold change /veh HIST1H1D (11736915_at) / RFU CASKIN2 (11723855_a_at) / Fold change /veh CASKIN2 (11723855_a_at) / RFU LOC730098 (11760151_x_at) / Fold change /veh LOC730098 (11760151_x_at) / RFU OR4N2 (11742367_at) / Fold change /veh OR4N2 (11742367_at) / RFU PRRT2 (11749266_a_at) / Fold change /veh PRRT2 (11749266_a_at) / RFU SNX32 (11753110_a_at) / Fold change /veh SNX32 (11753110_a_at) / RFU CDHR5 (11726645_a_at) / Fold change /veh CDHR5 (11726645_a_at) / RFU RCAN1 (11760418_a_at) / Fold change /veh RCAN1 (11760418_a_at) / RFU FAM167A (11723789_a_at) / Fold change /veh FAM167A (11723789_a_at) / RFU FAM26E (11764081_at) / Fold change /veh FAM26E (11764081_at) / RFU ISYNA1 (11749810_s_at) / Fold change /veh ISYNA1 (11749810_s_at) / RFU ACY1 (11761880_at) / Fold change /veh ACY1 (11761880_at) / RFU 11764098_at / Fold change /veh 11764098_at / RFU SAMD14 (11745864_x_at) / Fold change /veh SAMD14 (11745864_x_at) / RFU NPB (11741838_a_at) / Fold change /veh NPB (11741838_a_at) / RFU TMPRSS6 (11731388_a_at) / Fold change /veh TMPRSS6 (11731388_a_at) / RFU KRTAP10-2 (11738614_at) / Fold change /veh KRTAP10-2 (11738614_at) / RFU ARHGAP8 /// PRR5-ARHGAP8 (11727945_x_at) / Fold change /veh ARHGAP8 /// PRR5-ARHGAP8 (11727945_x_at) / RFU KRTAP5-7 /// NADSYN1 (11734609_at) / Fold change /veh KRTAP5-7 /// NADSYN1 (11734609_at) / RFU RASL12 (11751679_a_at) / Fold change /veh RASL12 (11751679_a_at) / RFU CDKN2B (11736163_a_at) / Fold change /veh CDKN2B (11736163_a_at) / RFU PRF1 (11729649_at) / Fold change /veh PRF1 (11729649_at) / RFU, ZNF638 /// ZNF638-IT1 / Fold change vs veh, ZNF638 /// ZNF638-IT1 / RFU, PANK3 / Fold change vs veh, PANK3 / RFU, SH3YL1 / Fold change vs veh, SH3YL1 / RFU, ZEB2 / Fold change vs veh, ZEB2 / RFU, NRIP1 / Fold change vs veh, NRIP1 / RFU, PTTG1IP / Fold change vs veh, PTTG1IP / RFU, CAPN2 / Fold change vs veh, CAPN2 / RFU, MED14 / Fold change vs veh, MED14 / RFU, SNORA58 / Fold change vs veh, SNORA58 / RFU, C1orf63 / Fold change vs veh, C1orf63 / RFU, LRRFIP1 / Fold change vs veh, LRRFIP1 / RFU, NDUFAF7 / Fold change vs veh, NDUFAF7 / RFU, SLC12A2 / Fold change vs veh, SLC12A2 / RFU, IBTK / Fold change vs veh, IBTK / RFU, ESF1 / Fold change vs veh, ESF1 / Fold change vs veh, TMEM50B / RFU, TAOK1 / Fold change vs veh, TAOK1 / RFU, ACBD3 / Fold change vs veh, ACBD3 / RFU, TMA16 / Fold change vs veh, TMA16 / RFU, RWDD3 / Fold change vs veh, RWDD3 / RFU, BCAT1 / Fold change vs veh, BCAT1 / RFU, EDEM3 / Fold change vs veh, EDEM3 / RFU, TMEM33 / Fold change vs veh, TMEM33 / RFU, WDR75 / Fold change vs veh, WDR75 / RFU, AHCTF1 / Fold change vs veh, AHCTF1 / RFU, TFRC / Fold change vs veh, TFRC / RFU, ZDHHC17 / Fold change vs veh, ZDHHC17 / RFU, NOM1 / Fold change vs veh, NOM1 / RFU, ARL8B / Fold change vs veh, ARL8B / RFU, ZBTB11 / Fold change vs veh, ZBTB11 / RFU, TAMM41 / Fold change vs veh, TAMM41 / RFU, KIAA1704 /// LOC100996395 / Fold change vs veh, KIAA1704 /// LOC100996395 / RFU, ING1 / Fold change vs veh, ING1 / RFU, TRMT61B / Fold change vs veh, TRMT61B / RFU, FUBP3 / Fold change vs veh, FUBP3 / RFU, TP53 / Fold change vs veh, TP53 / RFU, TNKS2 / Fold change vs veh, TNKS2 / RFU, ZFP14 / Fold change vs veh, ZFP14 / RFU, ACTR2 / Fold change vs veh, ACTR2 / RFU, PPP3R1 / Fold change vs veh, PPP3R1 / RFU, PIK3R1 / Fold change vs veh, PIK3R1 / RFU, HNRNPA1 / Fold change vs veh, HNRNPA1 / RFU, RNF170 / Fold change vs veh, RNF170 / RFU, ZNF28 / Fold change vs veh, ZNF28 / RFU, RNGTT / Fold change vs veh, RNGTT / RFU, OGT / Fold change vs veh, OGT / RFU, BRD1 / Fold change vs veh, BRD1 / RFU, MARS / Fold change vs veh, MARS / RFU, ZNF655 / Fold change vs veh, ZNF655 / RFU, FAHD1 / Fold change vs veh, FAHD1 / RFU, BDP1 / Fold change vs veh, BDP1 / RFU, LRRCC1 / Fold change vs veh, LRRCC1 / RFU, ARID1A / Fold change vs veh, ARID1A / RFU, ZNF146 / Fold change vs veh, ZNF146 / RFU, ZNF330 / Fold change vs veh, ZNF330 / RFU, GPN3 / Fold change vs veh, GPN3 / RFU, C9orf123 / Fold change vs veh, C9orf123 / RFU, N4BP2L2 / Fold change vs veh, N4BP2L2 / RFU, ARFIP1 / Fold change vs veh, ARFIP1 / RFU, FAM179B / Fold change vs veh, FAM179B / RFU, BCL10 / Fold change vs veh, BCL10 / RFU, UHRF1BP1L / Fold change vs veh, UHRF1BP1L / RFU, BET1 / Fold change vs veh, BET1 / RFU, CNOT2 / Fold change vs veh, CNOT2 / RFU, ZNF268 / Fold change vs veh, ZNF268 / Fold change vs veh, ZNF507 / RFU, DGCR2 / Fold change vs veh, DGCR2 / RFU, WDSUB1 / Fold change vs veh, WDSUB1 / Fold change vs veh, HSP90B1 /// MIR3652 / RFU, ADSS / Fold change vs veh, ADSS / RFU, GK / Fold change vs veh, GK / RFU, ZNF148 / Fold change vs veh, ZNF148 / RFU, TAF9 / Fold change vs veh, TAF9 / RFU, SLC1A5 / Fold change vs veh, SLC1A5 / RFU, SLMO2 / Fold change vs veh, SLMO2 / RFU, ABCC4 / Fold change vs veh, ABCC4 / RFU, LOC101060439 /// RAP1B / Fold change vs veh, LOC101060439 /// RAP1B / RFU, RFX7 / Fold change vs veh, RFX7 / RFU, GTPBP10 / Fold change vs veh, GTPBP10 / RFU, CNEP1R1 / Fold change vs veh, CNEP1R1 / RFU, BIVM-ERCC5 /// ERCC5 / Fold change vs veh, BIVM-ERCC5 /// ERCC5 / RFU, ILF3 / Fold change vs veh, ILF3 / RFU 11762660_at / Fold change /veh 11762660_at / RFU VCAN (11757783_s_at) / Fold change /veh VCAN (11757783_s_at) / RFU DDX43 (11728927_at) / Fold change /veh DDX43 (11728927_at) / RFU KRT8 (11758188_x_at) / Fold change /veh KRT8 (11758188_x_at) / RFU NKD1 (11759106_at) / Fold change /veh NKD1 (11759106_at) / RFU SRD5A1 (11742802_a_at) / Fold change /veh SRD5A1 (11742802_a_at) / RFU TPSAB1 /// TPSB2 (11721975_s_at) / Fold change /veh TPSAB1 /// TPSB2 (11721975_s_at) / RFU GSTM3 (11746129_a_at) / Fold change /veh GSTM3 (11746129_a_at) / RFU IL23R (11737362_x_at) / Fold change /veh IL23R (11737362_x_at) / RFU TMEM51 (11727254_a_at) / Fold change /veh TMEM51 (11727254_a_at) / RFU PIWIL2 (11732686_x_at) / Fold change /veh PIWIL2 (11732686_x_at) / RFU ORM1 (11744905_x_at) / Fold change /veh ORM1 (11744905_x_at) / RFU CCDC152 (11743942_at) / Fold change /veh CCDC152 (11743942_at) / RFU ECM1 (11717891_a_at) / Fold change /veh ECM1 (11717891_a_at) / RFU IL23R (11748794_a_at) / Fold change /veh IL23R (11748794_a_at) / RFU TNFAIP8L3 (11732012_x_at) / Fold change /veh TNFAIP8L3 (11732012_x_at) / RFU MBOAT4 (11741988_at) / Fold change /veh MBOAT4 (11741988_at) / RFU 11764193_at / Fold change /veh 11764193_at / RFU TMEM53 (11763286_at) / Fold change /veh TMEM53 (11763286_at) / RFU MAGEB2 (11727129_at) / Fold change /veh MAGEB2 (11727129_at) / RFU TMEM200A (11744735_a_at) / Fold change /veh TMEM200A (11744735_a_at) / RFU CCDC152 (11751479_a_at) / Fold change /veh CCDC152 (11751479_a_at) / RFU FAM211A (11726209_a_at) / Fold change /veh FAM211A (11726209_a_at) / RFU RGS16 (11746705_a_at) / Fold change /veh RGS16 (11746705_a_at) / RFU VCAN (11755009_s_at) / Fold change /veh VCAN (11755009_s_at) / RFU RHOB (11743442_s_at) / Fold change /veh RHOB (11743442_s_at) / RFU RGS16 (11720943_a_at) / Fold change /veh RGS16 (11720943_a_at) / RFU RGS16 (11720944_at) / Fold change /veh RGS16 (11720944_at) / RFU, VPS4B / Fold change vs veh, VPS4B / RFU, CREB1 / Fold change vs veh, CREB1 / RFU, DNAJC13 / Fold change vs veh, DNAJC13 / RFU, GNAQ / Fold change vs veh, GNAQ / RFU, CDK5R1 / Fold change vs veh, CDK5R1 / RFU, ZRANB3 / Fold change vs veh, ZRANB3 / RFU, CUL4A / Fold change vs veh, CUL4A / RFU, CCNY / Fold change vs veh, CCNY / RFU, UFL1 / Fold change vs veh, UFL1 / RFU, COG3 / Fold change vs veh, COG3 / RFU, DIAPH2 / Fold change vs veh, DIAPH2 / RFU, SKA2 / Fold change vs veh, SKA2 / RFU, AFF3 / Fold change vs veh, AFF3 / RFU, LMF1 / Fold change vs veh, LMF1 / RFU, IPO11 / Fold change vs veh, IPO11 / RFU, DFFB / Fold change vs veh, DFFB / RFU, FOXP1 / Fold change vs veh, FOXP1 / RFU, CARD8 / Fold change vs veh, CARD8 / RFU, STRN3 / Fold change vs veh, STRN3 / RFU, ADK / Fold change vs veh, ADK / RFU, RASSF2 / Fold change vs veh, RASSF2 / RFU, WIPF1 / Fold change vs veh, WIPF1 / RFU, LARP1B / Fold change vs veh, LARP1B / RFU, RASA1 / Fold change vs veh, RASA1 / RFU, RB1 / Fold change vs veh, RB1 / RFU, PPFIA1 / Fold change vs veh, PPFIA1 / RFU, MAT2A / Fold change vs veh, MAT2A / RFU, CCT5 / Fold change vs veh, CCT5 / RFU, WDR92 / Fold change vs veh, WDR92 / RFU, CUX1 / Fold change vs veh, CUX1 / RFU, TTC7A / Fold change vs veh, TTC7A / RFU, TMEM135 / Fold change vs veh, TMEM135 / RFU, DEPTOR / Fold change vs veh, DEPTOR / RFU, CPM / Fold change vs veh, CPM / RFU, DNAJB6 / Fold change vs veh, DNAJB6 / RFU, CACNA2D3 / Fold change vs veh, CACNA2D3 / RFU, DTX4 / Fold change vs veh, DTX4 / RFU, TFCP2 / Fold change vs veh, TFCP2 / RFU, GMCL1 /// GMCL1P1 / Fold change vs veh, GMCL1 /// GMCL1P1 / RFU, AEBP2 / Fold change vs veh, AEBP2 / RFU, SNHG1 /// SNORD22 /// SNORD25 /// SNORD26 /// SNORD27 /// SNORD28 /// SNORD29 /// SNORD31 / Fold change vs veh, SNHG1 /// SNORD22 /// SNORD25 /// SNORD26 /// SNORD27 /// SNORD28 /// SNORD29 /// SNORD31 / Fold change (Aza/veh), C12orf56 (ProbeSet 11735607_a_at) / Fold change (ACY-1035/veh), C12orf56 (ProbeSet 11735607_a_at) / Fold change (Aza/veh), FGFR1OP (ProbeSet 11751329_s_at) / Fold change (ACY-1035/veh), FGFR1OP (ProbeSet 11751329_s_at) / Fold change (Aza/veh), VPS36 (ProbeSet 11739960_a_at) / Fold change (ACY-1035/veh), VPS36 (ProbeSet 11739960_a_at) / RFU SYPL1 (11715823_x_at) / Fold change /veh SYPL1 (11715823_x_at) / RFU IGFBP7 (11715501_s_at) / Fold change /veh IGFBP7 (11715501_s_at) / RFU REEP3 (11722064_at) / Fold change /veh REEP3 (11722064_at) / RFU IGLL1 (11728026_x_at) / Fold change /veh IGLL1 (11728026_x_at): dose or concentration left out as unconfirmed",
  "settings": "MV-4-11 cells, 48 hours",
  "data": [
    {"molecule": "Nc1ncn([C@@H]2O[C@H](CO)[C@@H](O)[C@H]2O)c(=O)n1", "note": "[azacitidine]", "values": [
      {"measurement": "RFU NPB (11741838_a_at)", "result": 80.08, "unit": "RFU"}
    ]}
  ]
}
